Test results: patent publication US4908384A, “Fatty acid leukotriene synthesis inhibitors” (McNeilab, Inc., priority 1986, dated 1990)
pIC50: −log10 of the molar value.

Key:
human granulocyte cells = test: Human granulocyte Assay for Lipoxygenase Products (HGALP); assay type: cell-based; conditions: inhibition of [3H]-lipoxygenase metabolite release; human granulocytes prelabeled with [3H]-arachidonic acid, 10 μM ionophore A23187, 14 μM indomethacin
Description: (b) Human granulocyte Assay for Lipoxygenase Products (HGALP)
This test is a measurement of the inhibition of the synthesis or relase of [3H]-labeled lipoxygenase metabolites released or generated from human granulocyte cells that are prelabeled with [3H]-arachidonic acid. These metabolites include the leukotrienes (e.g., LTB4) which are potent mediators of inflammation and allergy. In this test, a granulocyte enriched fraction is prepared from freshly drawn human blood (50 ml/donor) by standard techniques involving unit gravity separation on ficoll hypaque. […] After washing out unincorporated label, the radiolabeled cells are brought up in incubation buffer (Minimum Essential Medium containing 14 μM indomethacin) to a 10^7 cell/ml concentration. […] Cell suspensions are challeged with 10 μM ionophore A23187 to […], incubations are terminated by the addition of 1 ml ice cold phosphate buffered saline, and cells are pelleted by centrifugation. Supernatants are passed through C18 Sep Pak® cartridges which are then washed twice with 1 ml water. Lipoxygenase metabolites are eluted with two 1 ml volumes of methanol. Eluates are collected in scintillation vials and counted in Aqueous Counting Scintillant (ACS). Radioactivity eluted with methanol is a measure of lipoxygenase metabolites. Values are normalized to vehicle (5 μl DMSO) treated controls and expressed as percent inhibition. Triplicate determinations at each drug concentration are analyzed as log-dose response curves by linear regression analysis from which IC50 values are derived.
(§1) The results of the IMCPS and the HGALP tests, employing the administration of various illustrative compounds of the present invention, are shown in Table I. The compounds are of the formula (I) wherein R^1, R^2, R^3, A and Y are as shown, R^4 and R^5 are hydrogen and k is 3.

[1] = system: guinea pig lung parenchymal tissue; test: Immunologically Mediated Contraction of the Parenchymal Strip (IMCPS); assay type: cell-based; conditions: Cavia porcellus, inhibition of egg albumin-induced contraction of sensitized guinea pig lung strip, 30 min preincubation, chlorpheniramine 10 μM and indomethacin 100 μM present, active if >=15%, read-out: IMCPS % Inhib @ 100 μM
Description: (a) Immunogically Mediated Contraction of the Parenchymal Strip (IMCPS)
It is a modification of the procedure published by K. Forsberg and L. Sorenby in Agents and Actions, Vol. 9 pp. 364-368 (1978). In this test, male Hartley strain guinea pigs weighting 400 to 600 g were sensitized by subcutaneous administration of chicken egg albumin (Sigma A-5503, 1.0 mg, 0.5% solution) and bordetella pertussis, 11×10^9 cells (MassachusettsPublic health Biological Labs) 4 to 8 weeks prior to the experiment. The animals were sacrificed, the heart and lungs were removed en bloc and placed in Krebs solution at room temperature. Lung strips (2.5 cm in length) were cut from the perihperal edge of each lobe. Two strips were removed from each animal and were trimmed to be of equal length. Each strip was suspended in an isolated organ bath (10.0 ml) containing oxygenated Krebs buffer solution at 37.5° C. then attached to a force displacement transducer (Grass FTO3) and placed under an initial tension of 1.0 g. The tissues were allowed to equilibrate for 45-60 min, during which the bathing solution was changed several times. At the end of the equilbration period, chlorpheniramine (10.0μM) and indomethacin (100.0μM) were added to eliminate the contribution of histamine and prostaglandins to the contractile response. The two tissues from each animal were matched so that one tissue served as a control and the test drug dissolved in DMSO was added to the bath containing the other tissue at a final concentration of 100μM. After 30 min, egg albumin was added to each bath and the contractile response was measured as milligrams of tension developed as recorded on a Grass Model 7D polygraph.
as §1

Row | SMILES | pIC50 (human granulocyte cells) | inhibition at 100 µM [1] [%]
1 | CCCCCCCCCCCCC(O)CC#CCCCC(=O)O (stereo not shown) [Example 1d, 8-Hydroxy-5-eicosynoic acid] | 4.92 | 20 to 43
2 | CCCCCCCCCCCCC(=O)C/C=C\CCCC(=O)O [Example 3, 8-oxo-5-(Z)-eicosenoic Acid] | 4.89 | 24
3 | O=C(O)CCCC#CCC(O)CCc1ccccc1 (stereo not shown) [Example 5, 8-Hydroxy-10-phenyl-5-decynoic Acid Hydrate (10:1)] | 4.85 | 9 to 14
4 | O=C(O)CCC/C=C\CC(O)CCc1ccccc1 (stereo not shown) [Example 6, 8-Hydroxy-10-phenyl-5(Z)-decenoic Acid] | 4.89 | 9
5 | CCCCCc1ccc(OCC(O)CC#CCCCC(=O)O)cc1 (stereo not shown) [Example 7b, 8-Hydroxy-9(4-pentylphenoxy)-5-nonynoic acid] | 4.92 | 29
6 | CCCCCc1ccc(OCC(O)C/C=C\CCCC(=O)OC)cc1 (stereo not shown) [Example 9, Methyl 8-Hydroxy-9-(4-pentylphenoxy)-5(Z)-nonenoate] | 4.85 | 0
7 | CCCCCc1ccc(OCC(S)CC#CCCCC(=O)O)cc1 (stereo not shown) [Example 12b, 8-Mercapto-9-(4-pentylphenoxy)-5-nonynoic acid] | 4.89 | 29
8 | CCCCCOc1ccc(OCC(O)CC#CCCCC(=O)O)cc1 (stereo not shown) [Example 14b, 8-Hydroxy-9-(4-pentoxyphenoxy)-5-nonynoic acid] | 4.48 | 0 to 30

The next compounds have a higher pIC50 (human granulocyte cells) than those just listed; values first:

Row | pIC50 (human granulocyte cells) | SMILES | inhibition at 100 µM [1] [%]
9 | 5.12 | CCCCCCCCCCCCC(O)C/C=C\CCCC(=O)O (stereo not shown) [Example 2, 8-Hydroxy-5(Z)-eicosenoic Acid] | 19
10 | 5.31 | CCCCCCCCCCCCC(=O)CC#CCCCC(=O)O [Example 4, 8-Oxo-5-eicosynoic Acid] | 22
11 | 5.10 | CCCCCc1ccc(OCC(O)CC#CCCCC(=O)OC)cc1 (stereo not shown) [Example 8, Methyl 8-Hydroxy-9-(4-pentylphenoxy)-5-nonynoate] | 14
12 | 5.02 to 5.96 | CCCCCc1ccc(OCC(O)C/C=C\CCCC(=O)O)cc1 (stereo not shown) [Example 10, 8-Hydroxy-9-(4-pentylphenoxy)-5-(Z)-nonenoic acid] | 28.5
13 | 5.07 | CCCCCc1ccc(OCC(C/C=C\CCCC(=O)OC)SC(C)=O)cc1 (stereo not shown) [Example 11, Methyl 8-(Acetylthio)-9-(4-pentylphenoxy)-5-(Z)-nonenoate] | 3
14 | 5.64 | CCCCCc1ccc(OCC(O)CCCCCCC(=O)O)cc1 (stereo not shown) [Example 13, 8-Hydroxy-9-(4-pentylphenoxy)nonanoic Acid] | 6
